Laboratory results taken from the NIST ThermoML archive (doi:10.1021/je060271a).

Settings: 323.15 K, Liquid, Vibrating tube method

CCCCCCCC(=O)OCC(COC(=O)CCCCCCC)(COC(=O)CCCCCCC)COC(=O)CCCCCCC [pentaerythritol tetraoctanoate]
Settings | mass density [kg/m3]
26616 kPa | 957.5
26661 kPa | 957.4
26699 kPa | 957.6
26737 kPa | 957.5
26782 kPa | 957.5
26820 kPa | 957.5
26866 kPa | 957.6
26904 kPa | 957.6
26944 kPa | 957.7
26985 kPa | 957.7
27024 kPa | 957.7
27070 kPa | 957.8
27109 kPa | 957.9
27407 kPa | 957.9
27548 kPa | 957.8
27601 kPa | 958
27639 kPa | 958.1
27665 kPa | 958.1
27687 kPa | 958.2
27713 kPa | 958.1
27735 kPa | 958.1
27761 kPa | 958.2
27784 kPa | 958.1
27806 kPa | 958.3
27832 kPa | 958.2
27854 kPa | 958.3
27877 kPa | 958.2
27899 kPa | 958.2
27926 kPa | 958.2
27943 kPa | 958.3
27970 kPa | 958.3
28091 kPa | 958.4
28114 kPa | 958.4
28142 kPa | 958.4
28164 kPa | 958.3
28188 kPa | 958.3
28216 kPa | 958.4
28238 kPa | 958.4
28262 kPa | 958.4
28284 kPa | 958.5
28312 kPa | 958.6
28336 kPa | 958.5
28358 kPa | 958.6
28386 kPa | 958.5
28410 kPa | 958.5
28434 kPa | 958.4
28461 kPa | 958.5
28484 kPa | 958.5
28508 kPa | 958.6
28531 kPa | 958.6
28559 kPa | 958.6
28583 kPa | 958.6
28607 kPa | 958.7
28635 kPa | 958.6
28658 kPa | 958.7
28687 kPa | 958.9
28711 kPa | 958.7
28734 kPa | 958.8
28758 kPa | 958.6
28787 kPa | 958.8
28812 kPa | 958.8
28836 kPa | 958.8
28860 kPa | 958.9
28889 kPa | 958.7
28913 kPa | 958.9
28937 kPa | 958.8
28966 kPa | 958.9
28990 kPa | 958.9
29019 kPa | 958.9
29043 kPa | 958.8
29068 kPa | 958.9
29098 kPa | 958.9
29122 kPa | 958.9
29148 kPa | 958.9
29173 kPa | 959.1
29198 kPa | 959
29218 kPa | 959
29248 kPa | 959
29273 kPa | 959
29302 kPa | 959.1
29333 kPa | 959.1
29357 kPa | 959.1
29383 kPa | 959.1
29412 kPa | 959.1
29438 kPa | 959.2
29462 kPa | 959.2
29494 kPa | 959.2
29520 kPa | 959.1
29545 kPa | 959.2
29571 kPa | 959.2
29601 kPa | 959.1
29627 kPa | 959.3
29652 kPa | 959.2
29682 kPa | 959.4
29708 kPa | 959.2
29733 kPa | 959.3
29764 kPa | 959.3
29790 kPa | 959.3
29816 kPa | 959.3
29847 kPa | 959.3
29873 kPa | 959.4
29898 kPa | 959.4
29924 kPa | 959.4
29956 kPa | 959.4
29982 kPa | 959.4
30013 kPa | 959.4
30040 kPa | 959.4
30060 kPa | 959.5
30087 kPa | 959.5
30118 kPa | 959.5
30150 kPa | 959.6
30181 kPa | 959.6
30209 kPa | 959.5
30235 kPa | 959.6
30267 kPa | 959.6
30294 kPa | 959.6
30321 kPa | 959.6
30347 kPa | 959.6
30380 kPa | 959.7
30407 kPa | 959.7
30434 kPa | 959.6
30466 kPa | 959.7
30493 kPa | 959.7
30521 kPa | 959.7
30553 kPa | 959.8
30581 kPa | 959.6
30608 kPa | 959.8
30635 kPa | 959.8
30668 kPa | 959.8
30696 kPa | 959.8
30728 kPa | 959.8
30756 kPa | 959.9
30778 kPa | 959.9
30806 kPa | 959.9
30834 kPa | 960
30862 kPa | 959.9
30906 kPa | 960
30934 kPa | 959.8
30962 kPa | 959.9
30991 kPa | 960
31025 kPa | 960
31053 kPa | 959.9
31086 kPa | 960
31115 kPa | 960
31143 kPa | 959.9
31171 kPa | 960.1
31205 kPa | 960.1
31233 kPa | 960.2
